Experiment [1] concerns the target Serine/threonine-protein kinase Chk2 (Homo sapiens) (UniProt O96017). Kind of experiment: Selectivity interaction (Kinase panel (KiNativ target engagement assay in Jurkat cells)) EUB0001635a CHEK2. Format: cell-based. The conditions noted are these: at 1 µM.
The target of experiment [2] is Cyclin-G-associated kinase (Homo sapiens, UniProt O14976). Briefly: Selectivity interaction (Competition-binding assay (DiscoverX)) EUB0000229b GAK.
In experiment [3] the target is Alpha-2B adrenergic receptor (Homo sapiens) (UniProt P18089). Briefly: Selectivity interaction (GPCR panel (PDSP screen)) EUB0001079a ADRA2B. The conditions noted are these: at 10 µM.
Alpha-2B adrenergic receptor (Homo sapiens), sequence (P18089 whole entry): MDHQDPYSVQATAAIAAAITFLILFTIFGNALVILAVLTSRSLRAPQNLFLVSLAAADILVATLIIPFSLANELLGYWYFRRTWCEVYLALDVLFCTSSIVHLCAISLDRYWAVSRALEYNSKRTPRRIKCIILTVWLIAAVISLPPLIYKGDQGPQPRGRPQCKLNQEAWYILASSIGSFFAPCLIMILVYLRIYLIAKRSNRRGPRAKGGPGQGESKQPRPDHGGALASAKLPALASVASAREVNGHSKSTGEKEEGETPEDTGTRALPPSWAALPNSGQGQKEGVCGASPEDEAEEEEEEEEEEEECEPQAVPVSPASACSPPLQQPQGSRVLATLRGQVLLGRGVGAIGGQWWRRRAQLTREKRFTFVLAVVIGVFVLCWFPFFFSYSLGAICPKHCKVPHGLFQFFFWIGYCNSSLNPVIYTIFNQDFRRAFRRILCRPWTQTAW
The target in experiment [4] is Serine/threonine-protein kinase pim-3 (Homo sapiens) (UniProt Q86V86). Kind of experiment: Selectivity interaction (KinomeScan (DiscoverX)) EUB0001619a PIM3. The following applies: at 1 µM.
Experiment [5] deals with Sodium-dependent dopamine transporter (Homo sapiens, UniProt Q01959). Briefly: Selectivity interaction (Dopamine Transporter assay, human recombinant ) EUB0000877a SLC6A3.
Sodium-dependent dopamine transporter, sequence (Q01959 whole entry): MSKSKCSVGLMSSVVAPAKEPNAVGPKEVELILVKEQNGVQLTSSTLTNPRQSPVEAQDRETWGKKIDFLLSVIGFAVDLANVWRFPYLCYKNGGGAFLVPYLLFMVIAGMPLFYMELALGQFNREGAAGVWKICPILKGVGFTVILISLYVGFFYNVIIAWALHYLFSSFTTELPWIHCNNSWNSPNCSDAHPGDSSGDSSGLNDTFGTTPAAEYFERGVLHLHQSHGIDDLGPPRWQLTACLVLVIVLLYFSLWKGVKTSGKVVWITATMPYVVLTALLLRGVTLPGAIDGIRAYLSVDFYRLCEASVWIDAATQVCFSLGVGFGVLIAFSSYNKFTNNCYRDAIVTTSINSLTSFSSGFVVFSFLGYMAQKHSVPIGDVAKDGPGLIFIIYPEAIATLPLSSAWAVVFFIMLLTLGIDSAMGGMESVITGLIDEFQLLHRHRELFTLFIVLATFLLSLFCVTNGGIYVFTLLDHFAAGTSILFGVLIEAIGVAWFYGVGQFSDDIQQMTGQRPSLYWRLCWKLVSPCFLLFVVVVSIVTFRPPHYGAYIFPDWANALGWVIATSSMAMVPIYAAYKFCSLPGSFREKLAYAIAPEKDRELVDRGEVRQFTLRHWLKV
For experiment [6], the target named is Ribosomal protein S6 kinase alpha-5 (Homo sapiens) (UniProt O75582). Kind of experiment: Selectivity interaction (Kinase panel (Invitrogen)) EUB0000639a RPS6KA5. The conditions noted are these: at 200 nM.
The target of experiment [7] is T1, Serine/threonine-protein kinase LATS2 (Homo sapiens) (UniProt Q9NRM7).
T1 sequence (whole entry): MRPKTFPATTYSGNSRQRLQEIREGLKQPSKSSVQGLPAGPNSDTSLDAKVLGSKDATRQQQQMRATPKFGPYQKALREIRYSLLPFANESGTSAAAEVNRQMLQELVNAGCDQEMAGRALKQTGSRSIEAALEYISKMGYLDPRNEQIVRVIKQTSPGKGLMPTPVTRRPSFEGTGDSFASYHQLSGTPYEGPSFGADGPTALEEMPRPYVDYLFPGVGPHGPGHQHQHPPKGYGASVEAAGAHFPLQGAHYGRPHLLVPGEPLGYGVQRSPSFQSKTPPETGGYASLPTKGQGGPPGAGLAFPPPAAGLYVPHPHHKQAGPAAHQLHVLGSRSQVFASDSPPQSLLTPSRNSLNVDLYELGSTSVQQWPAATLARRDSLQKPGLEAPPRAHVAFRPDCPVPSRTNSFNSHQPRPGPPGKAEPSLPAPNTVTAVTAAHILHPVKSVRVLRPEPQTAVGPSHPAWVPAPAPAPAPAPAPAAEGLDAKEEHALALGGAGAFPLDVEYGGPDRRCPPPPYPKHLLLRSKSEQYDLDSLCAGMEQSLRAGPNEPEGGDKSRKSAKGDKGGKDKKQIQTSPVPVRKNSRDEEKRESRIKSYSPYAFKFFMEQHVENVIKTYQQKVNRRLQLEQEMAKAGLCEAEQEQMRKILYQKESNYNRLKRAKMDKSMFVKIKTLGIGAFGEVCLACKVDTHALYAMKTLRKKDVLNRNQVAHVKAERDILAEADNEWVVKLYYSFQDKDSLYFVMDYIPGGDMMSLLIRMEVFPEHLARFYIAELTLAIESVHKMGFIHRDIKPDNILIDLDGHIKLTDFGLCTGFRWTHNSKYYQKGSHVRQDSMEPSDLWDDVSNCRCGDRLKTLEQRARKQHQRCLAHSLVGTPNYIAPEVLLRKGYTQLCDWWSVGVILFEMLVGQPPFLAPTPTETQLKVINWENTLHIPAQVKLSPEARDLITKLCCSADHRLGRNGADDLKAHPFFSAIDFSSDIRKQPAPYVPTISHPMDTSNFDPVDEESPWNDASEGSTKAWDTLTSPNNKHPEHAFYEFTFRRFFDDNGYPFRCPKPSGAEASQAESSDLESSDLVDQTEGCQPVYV
Briefly: Selectivity interaction (ActivX KiNativ screen (kinase selectivity in THP-1 cell lysates)) EUB0000639a LATS2. Format: subcellular. The following applies: lysate.

Experiment [8] addresses Cyclin-dependent kinase 14 (Homo sapiens) (UniProt O94921). Kind of experiment: Selectivity interaction (ActivX KiNativ screen (kinase selectivity in THP-1 cell lysates)) EUB0000639a CDK14. In kind it is subcellular. The conditions noted are these: lysate.
Experiment [9] concerns the target D(2) dopamine receptor (Homo sapiens, UniProt P14416). Briefly: Selectivity interaction (Eurofins CEREP Diversity Profile (receptors and ion channels)) EUB0000279b DRD2. The following applies: at 10 µM.
Experiment [10] addresses T2, Serine/threonine-protein kinase TAO3 (Homo sapiens) (UniProt Q9H2K8).
T2 sequence (whole entry): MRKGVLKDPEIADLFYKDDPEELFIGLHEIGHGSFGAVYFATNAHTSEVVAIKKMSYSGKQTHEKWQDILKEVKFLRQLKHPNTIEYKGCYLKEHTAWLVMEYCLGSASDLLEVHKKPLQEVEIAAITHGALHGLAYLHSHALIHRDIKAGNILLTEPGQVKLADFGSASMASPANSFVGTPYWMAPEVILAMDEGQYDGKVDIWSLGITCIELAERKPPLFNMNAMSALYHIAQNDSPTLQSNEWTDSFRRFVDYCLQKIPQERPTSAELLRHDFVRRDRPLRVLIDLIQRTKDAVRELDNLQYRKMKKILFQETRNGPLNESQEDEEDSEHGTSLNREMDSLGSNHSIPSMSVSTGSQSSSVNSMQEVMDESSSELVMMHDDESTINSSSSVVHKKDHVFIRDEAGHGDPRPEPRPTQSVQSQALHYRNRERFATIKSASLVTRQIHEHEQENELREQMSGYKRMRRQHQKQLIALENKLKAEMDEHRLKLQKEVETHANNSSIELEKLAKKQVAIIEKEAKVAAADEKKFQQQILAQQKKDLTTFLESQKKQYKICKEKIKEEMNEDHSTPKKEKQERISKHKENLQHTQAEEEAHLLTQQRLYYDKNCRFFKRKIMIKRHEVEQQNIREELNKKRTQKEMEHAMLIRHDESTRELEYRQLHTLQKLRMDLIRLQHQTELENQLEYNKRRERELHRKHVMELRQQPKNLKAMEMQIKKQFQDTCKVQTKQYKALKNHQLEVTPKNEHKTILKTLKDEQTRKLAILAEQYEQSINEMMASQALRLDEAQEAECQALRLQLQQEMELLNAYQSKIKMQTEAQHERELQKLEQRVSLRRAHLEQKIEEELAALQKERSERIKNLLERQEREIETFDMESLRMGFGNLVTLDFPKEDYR
Briefly: Selectivity interaction (KinomeScan (DiscoverX)) EUB0000045b TAOK3.

The target of experiment [11] is BDNF/NT-3 growth factors receptor (Homo sapiens) (UniProt Q16620). Briefly: Selectivity interaction (KinomeScan (DiscoverX)) EUB0000595a NTRK2. The conditions noted are these: at 10 µM.
BDNF/NT-3 growth factors receptor (Homo sapiens), sequence (Q16620 32-822 limits assumed): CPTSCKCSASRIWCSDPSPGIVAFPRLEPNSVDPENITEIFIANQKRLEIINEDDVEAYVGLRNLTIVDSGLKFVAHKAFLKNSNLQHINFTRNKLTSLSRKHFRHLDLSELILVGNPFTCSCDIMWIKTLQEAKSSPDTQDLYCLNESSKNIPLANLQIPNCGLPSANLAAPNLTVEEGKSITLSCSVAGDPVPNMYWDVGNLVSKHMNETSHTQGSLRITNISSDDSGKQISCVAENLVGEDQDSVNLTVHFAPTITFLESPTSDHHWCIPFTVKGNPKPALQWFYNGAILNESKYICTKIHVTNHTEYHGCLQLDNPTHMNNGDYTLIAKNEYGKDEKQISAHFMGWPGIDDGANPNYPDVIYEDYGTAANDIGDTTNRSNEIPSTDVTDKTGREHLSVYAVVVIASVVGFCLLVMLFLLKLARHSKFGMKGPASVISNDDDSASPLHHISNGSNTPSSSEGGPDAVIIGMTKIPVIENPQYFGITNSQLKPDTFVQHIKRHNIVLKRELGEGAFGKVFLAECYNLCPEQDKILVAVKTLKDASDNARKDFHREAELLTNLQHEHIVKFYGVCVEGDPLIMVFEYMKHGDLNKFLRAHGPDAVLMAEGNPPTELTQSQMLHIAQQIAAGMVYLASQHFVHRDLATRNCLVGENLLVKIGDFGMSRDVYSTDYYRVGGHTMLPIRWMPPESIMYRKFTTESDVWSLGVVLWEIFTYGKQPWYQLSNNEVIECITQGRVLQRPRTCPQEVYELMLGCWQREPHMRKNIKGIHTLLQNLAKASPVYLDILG

Structures are written as SMILES.

Cyclin-dependent kinase 14 (Homo sapiens), sequence (O94921 whole entry): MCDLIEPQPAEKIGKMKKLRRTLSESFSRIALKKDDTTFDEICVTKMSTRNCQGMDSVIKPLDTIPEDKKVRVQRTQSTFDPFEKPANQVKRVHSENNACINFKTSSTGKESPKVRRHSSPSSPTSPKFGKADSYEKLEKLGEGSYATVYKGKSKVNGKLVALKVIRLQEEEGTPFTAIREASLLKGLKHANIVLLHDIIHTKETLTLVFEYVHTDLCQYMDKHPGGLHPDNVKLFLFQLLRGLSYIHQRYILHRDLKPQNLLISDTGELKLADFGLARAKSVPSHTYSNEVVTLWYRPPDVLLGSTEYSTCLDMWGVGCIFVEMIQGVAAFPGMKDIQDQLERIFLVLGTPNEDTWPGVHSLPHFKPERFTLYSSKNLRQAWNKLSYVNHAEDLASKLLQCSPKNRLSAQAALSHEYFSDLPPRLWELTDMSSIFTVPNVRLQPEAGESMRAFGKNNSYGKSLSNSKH
Serine/threonine-protein kinase Chk2 (Homo sapiens), sequence (O96017 whole entry): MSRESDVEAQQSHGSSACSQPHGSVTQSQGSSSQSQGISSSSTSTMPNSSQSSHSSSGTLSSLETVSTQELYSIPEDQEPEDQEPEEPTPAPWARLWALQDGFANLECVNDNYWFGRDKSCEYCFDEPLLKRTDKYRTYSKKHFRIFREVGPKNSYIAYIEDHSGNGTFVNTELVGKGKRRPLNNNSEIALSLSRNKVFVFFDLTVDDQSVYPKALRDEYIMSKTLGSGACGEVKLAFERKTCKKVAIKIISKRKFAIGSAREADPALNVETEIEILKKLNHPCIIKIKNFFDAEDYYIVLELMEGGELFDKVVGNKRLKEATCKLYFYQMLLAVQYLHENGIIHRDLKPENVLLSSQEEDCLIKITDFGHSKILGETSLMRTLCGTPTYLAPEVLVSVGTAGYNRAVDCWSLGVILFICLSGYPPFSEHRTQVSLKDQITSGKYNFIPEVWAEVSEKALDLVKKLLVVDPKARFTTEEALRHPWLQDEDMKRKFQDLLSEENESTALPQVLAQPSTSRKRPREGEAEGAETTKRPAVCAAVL
Cyclin-G-associated kinase, sequence (O14976 whole entry): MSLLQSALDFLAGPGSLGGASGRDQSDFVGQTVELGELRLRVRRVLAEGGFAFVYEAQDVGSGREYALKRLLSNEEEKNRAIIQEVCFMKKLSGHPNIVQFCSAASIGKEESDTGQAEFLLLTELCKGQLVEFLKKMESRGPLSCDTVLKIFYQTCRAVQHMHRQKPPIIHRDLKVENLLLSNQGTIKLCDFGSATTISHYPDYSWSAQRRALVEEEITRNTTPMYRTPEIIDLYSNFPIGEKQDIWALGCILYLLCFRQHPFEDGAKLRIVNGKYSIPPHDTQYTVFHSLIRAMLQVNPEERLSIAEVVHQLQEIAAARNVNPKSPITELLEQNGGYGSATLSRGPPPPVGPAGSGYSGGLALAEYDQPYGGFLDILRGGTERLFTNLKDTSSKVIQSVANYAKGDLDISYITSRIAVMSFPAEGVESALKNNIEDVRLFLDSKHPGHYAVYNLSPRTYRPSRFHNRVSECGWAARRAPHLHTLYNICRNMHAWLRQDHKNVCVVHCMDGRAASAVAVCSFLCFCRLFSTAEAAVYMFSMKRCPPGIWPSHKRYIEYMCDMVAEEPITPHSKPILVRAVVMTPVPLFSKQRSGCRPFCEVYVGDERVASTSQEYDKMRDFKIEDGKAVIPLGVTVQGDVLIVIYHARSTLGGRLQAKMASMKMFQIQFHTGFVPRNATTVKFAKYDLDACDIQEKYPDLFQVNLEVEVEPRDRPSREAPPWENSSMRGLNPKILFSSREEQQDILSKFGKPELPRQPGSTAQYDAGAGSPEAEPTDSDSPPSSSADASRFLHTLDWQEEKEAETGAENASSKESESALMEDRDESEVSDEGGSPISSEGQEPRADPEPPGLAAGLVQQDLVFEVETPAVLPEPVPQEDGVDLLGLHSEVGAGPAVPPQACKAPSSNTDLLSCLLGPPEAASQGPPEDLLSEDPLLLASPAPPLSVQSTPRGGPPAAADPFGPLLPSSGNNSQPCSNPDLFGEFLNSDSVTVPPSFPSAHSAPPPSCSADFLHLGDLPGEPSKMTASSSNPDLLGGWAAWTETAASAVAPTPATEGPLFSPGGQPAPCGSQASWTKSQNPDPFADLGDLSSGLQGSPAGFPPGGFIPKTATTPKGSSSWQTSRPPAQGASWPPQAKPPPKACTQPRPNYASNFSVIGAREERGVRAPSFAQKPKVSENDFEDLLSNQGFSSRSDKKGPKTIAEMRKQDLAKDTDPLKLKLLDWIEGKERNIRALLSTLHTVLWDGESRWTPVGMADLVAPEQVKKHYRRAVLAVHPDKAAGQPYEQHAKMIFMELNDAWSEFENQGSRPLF
D(2) dopamine receptor, sequence (P14416 whole entry): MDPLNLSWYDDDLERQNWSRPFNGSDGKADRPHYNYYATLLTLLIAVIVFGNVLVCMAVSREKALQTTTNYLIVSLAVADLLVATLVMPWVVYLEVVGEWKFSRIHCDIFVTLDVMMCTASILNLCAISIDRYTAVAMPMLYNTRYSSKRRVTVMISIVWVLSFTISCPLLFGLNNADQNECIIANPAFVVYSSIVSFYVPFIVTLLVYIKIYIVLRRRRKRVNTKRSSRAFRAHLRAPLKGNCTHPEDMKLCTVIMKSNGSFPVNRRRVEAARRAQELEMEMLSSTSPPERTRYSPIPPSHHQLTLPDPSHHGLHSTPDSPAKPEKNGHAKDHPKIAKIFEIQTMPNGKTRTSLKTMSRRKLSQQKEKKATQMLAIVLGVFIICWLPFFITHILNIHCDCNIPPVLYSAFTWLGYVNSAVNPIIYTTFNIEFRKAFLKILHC

On to `C=CC(=O)Nc1ccc(C(=O)Nc2[nH]nc3c2CN(C(=O)N[C@H](CN(C)C)c2ccccc2)C3(C)C)cc1`, for which the % of engagement is 5.2% in experiment [1] (Selectivity number of off-targets 0.0, Selectivity number of targets 233.0, Source Knowledge https://www.sciencedirect.com/science/article/pii/S2451945619300674?via%3Dihub) and 4.4% in experiment [1].
In general, Kd refers to the free concentration of one partner at which half of the binding sites on the other are occupied at equilibrium, for simple one-to-one binding. Higher therefore signals weaker binding. For the compound `COc1cc(N(C)c2ccnc3ccc(C(F)(F)F)cc23)cc(OC)c1OC`, in [2], the Kd came to 7.1 µM.
On to `Nc1cnc(N2CCc3cc(S(=O)(=O)Nc4c(F)cc(Cl)cc4F)cc(N4CCCC4=O)c32)nc1` [TP-020n], for which, in [3], the % of inhibition is 0.99%.
In turn, `N#Cc1cccc(-c2c[nH]c3ncnc(N4CCOCC4)c23)c1` showed a % of control in experiment [4] of 100%.
What is called IC50 is the concentration at which inhibition is half-maximal. With `CCC(=O)N1CC[C@H](Nc2ncnc3c2CN(c2cnc(OC)c(C(F)(F)F)c2)CC3)C1` [LENIOLISIB], the half-maximal inhibitory concentration (IC50) in experiment [5] was more than 30 µM.
Take `CC[C@@H]1[C@H](F)C(=O)N[C@@H]1COc1nccc2cc(C(N)=O)c(OC)cc12` [ZIMLOVISERTIB]: the % of inhibition in experiment [6] is 0.449%; in experiment [7] (at 0.01 µM) it was -10.4%; in [7] (at 0.04 µM), -16%; in [7] (at 0.2 µM) it was 2.1%; in [7] (at 1 µM) it was 32.5%; in [7] (at 5 µM), 85%. The % of inhibition in experiment [8] (at 0.01 µM) is -6.2%; in [8] (at 0.04 µM) it was 2.9%; in experiment [8] (at 0.2 µM) it was -6.5%; in experiment [8] (at 1 µM), 12.2%; in experiment [8] (at 5 µM), 16.4%.
In turn, `CC(=O)c1cc(-c2ccccc2OCC2CC2)c2ncccn12` showed a % of control in [9] of 92%.
Regarding `C=CC(=O)Nc1cc(-n2c(=O)ccc3cnc4ccc(-c5ccc(NS(C)(=O)=O)cc5)cc4c32)ccc1C`, the % of control in [10] (at 1 µM) and in [10] (at 10 µM) was 100% each time.
Regarding `COCC(=O)NC/C=C/c1ccc2ncnc(Nc3ccc(Oc4ccc(C)nc4)c(C)c3)c2c1` [CP-724714], the % of control in experiment [11] came to 100%.
